In paper PMC11106739, “Discovery and Derivatization of Tridecaptin Antibiotics with Altered Host Specificity and Enhanced Bioactivity” (ACS Chemical Biology, 2024):
≈ marks a conversion by molar mass, not a printed value. Where a SMILES comes first, the peptide text is derived from it. [ ]: non-standard residue; d: D form. The star is where a group is joined. d(aIle) = CC[C@H](C)[C@@H](N)C(=O)O; dDab = NCC[C@@H](N)C(=O)O; Octanoyl = CCCCCCCC(=O)*; Dab = NCC[C@H](N)C(=O)O

Tests used:
[1] = tested on: Gram-positive bacteria (Staphylococcus aureus, Enterococcus faecalis, Enterococcus faecium); experiment: MIC, summary over Gram-positive strains; assay type: cell-based; conditions: at a concentration of 64 μg/mL; summary of Table 2
Protocol: (§1) All minimum inhibitory concentrations (MICs) were determined according to the Clinical and Standards Laboratory Institute (CLSI) guidelines. In brief, agar plates were inoculated from glycerol stocks and incubated overnight at 35 °C. Peptide DMSO stocks were dispensed into 96-well round-bottom plates using a TECAN D300e dispenser. Colistin sulfate (Sigma-Aldrich) was dissolved in water and serially diluted in a cation-adjusted Mueller Hinton broth (10 μL per well). Final concentrations of the test compounds were 0.06 to 64 μg/mL. Inocula were prepared by direct colony suspension in NaCl at 0.5 MacFarland, which was further diluted 200-fold in cation-adjusted Mueller Hinton broth for a target inoculum of 2 × 10^5 colony forming units (CFUs)/mL. 100 μL portion of the prepared inoculum was added to each well of the prepared plates containing the test compounds. Plates were sealed with parafilm and incubated for 20 h at 35 °C. Images of all plates were recorded, and MIC was assessed visually.

ATCC 25922 = assay type: cell-based, Enterococcus faecalis; conditions: ATCC 25922, 20 h
Protocol: as §1

E. faecalis ATCC 29212 = assay type: cell-based, Enterococcus faecalis; conditions: ATCC 29212, 20 h
Protocol: as §1

[2] = tested on: Gram-negative ESKAPE pathogens; assay type: cell-based; conditions: 20 h
Protocol: as §1

Rabbit red blood cells = experiment: Hemolysis assay; assay type: cell-based; conditions: rabbit red blood cells in PBS, 37 °C, 1 h, absorbance at 405 nm, normalization to the Triton X-100 control; 0.25 to 128 μg/mL tested
Protocol: Peptides, dissolved in DMSO, were dispensed into 96-well round-bottom microplates using a TECAN D300e dispenser and subsequently diluted with 100 μL of PBS. PBS or 2% Triton X-100 was used as negative and positive controls, respectively. Rabbit red blood cells (BioConcept) were diluted in PBS to a final concentration of 2%, and 100 μL was added to each well of the prepared 96-well plates. The final concentration of the test compounds was 0.25 to 128 μg/mL. Plates were incubated at 37 °C for 1 h and afterward subjected to centrifugation at 1000g for 5 min. Then, 30 μL of supernatant was transferred to a new round-bottom plate, and absorbance was measured at 405 nm (TECAN Infinite F200). EC50s were calculated after blank subtraction and normalization to the Triton control.

E. coli 1214245 = assay type: cell-based, Escherichia coli; conditions: 1214245, 20 h
Protocol: as §1

E. coli ATCC 25922 = assay type: cell-based, Escherichia coli; conditions: ATCC 25922, 20 h
Protocol: as §1

E. coli 1220120 = assay type: cell-based, Escherichia coli; conditions: 1220120, 20 h
Protocol: as §1

P. aeruginosa 1226072 = assay type: cell-based, Pseudomonas aeruginosa; conditions: 1226072, 20 h
Protocol: as §1

P. aeruginosa 1218019 = assay type: cell-based, Pseudomonas aeruginosa; conditions: 1218019, 20 h
Protocol: as §1

P. aeruginosa PAO1 = assay type: cell-based, Pseudomonas aeruginosa; conditions: PAO1, 20 h
Protocol: as §1

S. aureus ATCC 29213 [3] = assay type: cell-based, Staphylococcus aureus; conditions: ATCC 29213, 20 h
Protocol: as §1

S. aureus UAMS-1625 = assay type: cell-based, Staphylococcus aureus; conditions: S. aureus UAMS-1625 (BV18); CLSI broth dilution, cation-adjusted Mueller Hinton broth, 20 h, 35 °C, read visually
Protocol: as §1

S. aureus 1126387 = assay type: cell-based, Staphylococcus aureus; conditions: 1126387, 20 h
Protocol: as §1

A. baumannii ATCC 17978 = assay type: cell-based, Acinetobacter baumannii; conditions: ATCC 17978, 20 h
Protocol: as §1

A. baumannii HUMC1 = assay type: cell-based, Acinetobacter baumannii; conditions: HUMC1, 20 h
Protocol: as §1

A. baumannii IHMA 777621 = assay type: cell-based, Acinetobacter baumannii; conditions: IHMA 777621, 20 h
Protocol: as §1

K. pneumoniae 1228586 = assay type: cell-based, Klebsiella pneumoniae; conditions: 1228586, 20 h
Protocol: as §1

K. pneumoniae ATCC 13883 = assay type: cell-based, Klebsiella pneumoniae; conditions: ATCC 13883, 20 h
Protocol: as §1

K. pneumoniae 1227947 = assay type: cell-based, Klebsiella pneumoniae; conditions: 1227947, 20 h
Protocol: as §1

HepG2 cells = experiment: Cytotoxicity determination (CellTiter-Glo); assay type: cell-based; conditions: HepG2, medium without serum, 24 h, normalization to the untreated control, 1 to 128 μg/mL tested
Protocol: HepG2 cells were grown in EMEM (Sigma) supplemented with 2 mM glutamine and 10% fetal bovine serum (Fisher) at 37 °C, 5% CO2. 20′000 cells per well were seeded into clear tissue culture-treated 96-well plates and incubated for 24 h. Peptides, dissolved in DMSO, were dispensed into 96 deep well plates (TECAN D300e dispenser) and diluted to a final concentration of 1 to 128 μg/mL using fresh medium without serum. The next day, the old media were removed from the cells, and 200 μL of the prepared compound dilutions was added per well. Plates were incubated for another 24 h before assessing the cell viability using the CellTiter-Glo kit (Promega) according to the manufacturer’s protocol. IC50s were calculated after normalization to the untreated control.

E. faecium IHMA 890472 = assay type: cell-based, Enterococcus faecium; conditions: IHMA 890472, 20 h
Protocol: as §1

E. faecium ATCC 51559 = assay type: cell-based, Enterococcus faecium; conditions: ATCC 51559, 20 h
Protocol: as §1

S. aureus ATCC 29213 [4] = experiment: LIVE/DEAD staining (SYTO 9 / propidium iodide); assay type: cell-based, Staphylococcus aureus; conditions: S. aureus ATCC 29213, 1 × MIC, 15 min, microscopy
Protocol: This assay was performed according to a previously described procedure.[55],[56] Briefly, overnight cultures of E. coli ATCC 25922 and S. aureus ATCC 29213 were diluted to an OD600 of 0.2 in MHB and mixed with 1 × MIC of Oct-TriA1, Oct-TriA5, and Oct-TriD. Nisin and polymyxin B were used as positive controls at a concentration of 2-fold MIC. At the same time, green fluorescent nucleic acid stain SYTO 9 (excitation, 450–490 nm; emission, 500–550 nm) and red fluorescent nucleic acid stain propidium iodide (excitation, 574–599 nm; emission, 612–682 nm) (LIVE/DEAD Baclight Bacterial Viability Kit, Invitrogen) were added to the above cell suspensions. After mixing and incubating for 15 min in the dark at RT, cells were briefly sedimented via centrifugation and resuspended in fresh MHB. Then, the cell suspensions were loaded on 1.5% agarose pads and analyzed by a Zeiss Imager M2 microscope. Confocal images were obtained at 4 random locations for each sample and visualized using FIJI version 1.51H.[57]

| SMILES | antibacterial activity against Gram-positive bacteria [1] | MIC (ATCC 25922) [µg/mL] | MIC (E. faecalis ATCC 29212) [µg/mL] | MIC (E. coli 1214245) [µg/mL] | MIC (E. coli ATCC 25922) [µg/mL] | MIC (E. coli 1220120) [µg/mL] | MIC (P. aeruginosa 1226072) [µg/mL] | MIC (P. aeruginosa 1218019) [µg/mL] | MIC (P. aeruginosa PAO1) [µg/mL] | MIC (S. aureus ATCC 29213 [3]) [µg/mL] | MIC (S. aureus UAMS-1625) [µg/mL] | MIC (S. aureus 1126387) [µg/mL] | MIC (A. baumannii ATCC 17978) [µg/mL] | MIC (A. baumannii HUMC1) [µg/mL] | MIC (A. baumannii IHMA 777621) [µg/mL] | MIC (K. pneumoniae 1228586) [µg/mL] | MIC (K. pneumoniae ATCC 13883) [µg/mL] | MIC (K. pneumoniae 1227947) [µg/mL] | MIC (E. faecium IHMA 890472) [µg/mL] | MIC (E. faecium ATCC 51559) [µg/mL] | also measured |
| --- | --- | --- | --- | --- | --- | --- | --- | --- | --- | --- | --- | --- | --- | --- | --- | --- | --- | --- | --- | --- | --- |
| CCCCCCCC(=O)N[C@@H](C(=O)N[C@H](CCN)C(=O)NCC(=O)N[C@H](CO)C(=O)N[C@H](Cc1c[nH]c2ccccc12)C(=O)N[C@@H](CO)C(=O)N[C@@H](CCN)C(=O)N[C@H](CCN)C(=O)NCC(=O)N[C@@H](CCC(=O)O)C(=O)N[C@H](C(=O)N[C@@H](C(=O)N[C@@H](C)C(=O)O)[C@@H](C)CC)C(C)C)C(C)C [Oct-Gly9] (Octanoyl-[dV][dDab]G[dS][dW]S[Dab][dDab]GEV[d(aIle)]A-OH) | no antibacterial activity | >64 | >64 | 16 (≈ 11.2 µM) | 16 (≈ 11.2 µM) | 16 (≈ 11.2 µM) | 32 (≈ 22.4 µM) | >64 | 64 (≈ 44.7 µM) | >64 | >64 | >64 | >64 | >64 | >64 | 8 (≈ 5.59 µM) | 16 (≈ 11.2 µM) | 32 (≈ 22.4 µM) | >64 | >64 | MICs, range over Gram-negative pathogens [2]: 8 to 64 µg/mL; Hemolysis EC50 (Rabbit red blood cells): >128 µg/mL; IC50 on HepG2 w/o FCS (HepG2 cells): >128 µg/mL |
| CCCCCCCC(=O)N[C@@H](C(=O)N[C@H](CCN)C(=O)NCC(=O)N[C@H](CO)C(=O)N[C@H](Cc1c[nH]c2ccccc12)C(=O)N[C@@H](CO)C(=O)N[C@@H](CCN)C(=O)N[C@H](CCN)C(=O)N[C@@H](CO)C(=O)N[C@@H](CCC(=O)O)C(=O)N[C@H](C(=O)N[C@@H](C(=O)N[C@@H](C)C(=O)O)[C@@H](C)CC)C(C)C)C(C)C [Oct-Ser9] (Octanoyl-[dV][dDab]G[dS][dW]S[Dab][dDab]SEV[d(aIle)]A-OH) | no antibacterial activity | >64 | >64 | 64 (≈ 43.8 µM) | 32 (≈ 21.9 µM) | 32 (≈ 21.9 µM) | 32 (≈ 21.9 µM) | 32 (≈ 21.9 µM) | >64 | >64 | >64 | >64 | >64 | >64 | >64 | 8 (≈ 5.48 µM) | 64 (≈ 43.8 µM) | >64 | >64 | >64 | MICs, range over Gram-negative pathogens [2]: 8 to 64 µg/mL; Hemolysis EC50 (Rabbit red blood cells): >128 µg/mL; IC50 on HepG2 w/o FCS (HepG2 cells): >128 µg/mL |
| CCCCCCCC(=O)N[C@@H](C(=O)N[C@H](CCN)C(=O)NCC(=O)N[C@H](CO)C(=O)N[C@H](Cc1c[nH]c2ccccc12)C(=O)N[C@@H](CO)C(=O)N[C@@H](CCN)C(=O)N[C@H](CCN)C(=O)N[C@@H](Cc1ccccc1)C(=O)N[C@@H](CCC(=O)O)C(=O)N[C@H](C(=O)N[C@@H](C(=O)N[C@@H](C)C(=O)O)[C@@H](C)CC)C(C)C)C(C)C [Oct-TriA1] (Octanoyl-[dV][dDab]G[dS][dW]S[Dab][dDab]FEV[d(aIle)]A-OH) | – | 32 (≈ 21 µM) | 32 (≈ 21 µM) | 2 (≈ 1.32 µM) | 2 (≈ 1.32 µM) | 2 (≈ 1.32 µM) | 8 (≈ 5.26 µM) | 4 (≈ 2.63 µM) | 64 (≈ 42.1 µM) | 32 (≈ 21 µM) | 32 (≈ 21 µM) | 32 (≈ 21 µM) | 8 (≈ 5.26 µM) | 16 (≈ 10.5 µM) | 8 (≈ 5.26 µM) | 4 (≈ 2.63 µM) | 4 (≈ 2.63 µM) | 4 (≈ 2.63 µM) | 16 (≈ 10.5 µM) | 32 (≈ 21 µM) | LIVE/DEAD staining, membrane integrity of S. aureus cells (S. aureus ATCC 29213 [4]): still alive |
| CCCCCCCC(=O)N[C@H](Cc1ccccc1)C(=O)N[C@H](CCN)C(=O)N[C@@H](C(=O)N[C@H](CO)C(=O)N[C@H](Cc1c[nH]c2ccccc12)C(=O)N[C@@H](CO)C(=O)N[C@@H](CO)C(=O)N[C@H](CCN)C(=O)N[C@@H](Cc1c[nH]c2ccccc12)C(=O)N[C@@H](CO)C(=O)N[C@H](C(=O)N[C@@H](C(=O)N[C@@H](CCN)C(=O)O)[C@@H](C)CC)C(C)C)[C@H](C)CC [Oct-TriD] (Octanoyl-[dF][dDab][dI][dS][dW]SS[dDab]WSV[d(aIle)][Dab]-OH) | – | 8 (≈ 4.88 µM) | 8 (≈ 4.88 µM) | 16 (≈ 9.77 µM) | 32 (≈ 19.5 µM) | 16 (≈ 9.77 µM) | 32 (≈ 19.5 µM) | 32 (≈ 19.5 µM) | >64 | 8 (≈ 4.88 µM) | 16 (≈ 9.77 µM) | 16 (≈ 9.77 µM) | 16 (≈ 9.77 µM) | 16 (≈ 9.77 µM) | 8 (≈ 4.88 µM) | 64 (≈ 39.1 µM) | 8 (≈ 4.88 µM) | >64 | 4 (≈ 2.44 µM) | 4 (≈ 2.44 µM) | LIVE/DEAD staining, membrane integrity of S. aureus cells (S. aureus ATCC 29213 [4]): had lysed |
